Source: US20140044690A1, “High-Energy Compounds for Use in Alzheimer's and Other Neurodegenerative Diseases” (University Of South Florida, priority 2012, published 2014)

Experiments:
[1] = system: SH-SY5Y cells; experiment: Cell survival and viability MTT assay / microscopy in SH-SY5Y cells; assay type: cell-based; details: for cell survival, of the untreated control, rotenone-induced death: 2 days, pre-incubation 1 mM each; for cell survival in H2O2-induced death (in words): H2O2 (not shown); for cell survival, of the control, H2O2-induced death: 0.6 mM H2O2, by 20 hours, pre-treatment 1 mM each
Protocol: SH-SY5Y cells were subcultured in the 12-well plate in DMEM containing 10% fetal bovine serum until 50% confluency. For experiment, the medium was replaced with serum-free DMEM and testing agents were added. The culture was continued in the incubator and parallel samples were taken out at various time intervals for microscopic examination or cell viability assay using an MTT toxicity assay kit (Sigma, Mo.) according to the manufacturer's instructions with modifications (Chen and Fernandez, 2004).

[2] = system: APP α-processing; experiment: APP secretion assay (sAPPα release) in human skin fibroblasts from young and aged donors; assay type: cell-based; details: for sAPPα release in aged cells, of the young cell level: aged human skin fibroblasts (donor age 81-96), 0.5 mM each, untreated aged cells 42.5%; for sAPPα level, of the control, co-treatment with rotenone: 0.2 μM rotenone two hours; for sAPPα level, of the control, co-treatment with rotenone / sAPPα level, of the control, co-treatment with H2O2: co-treatment 1.5 mM each; for sAPPα level, of the control, co-treatment with H2O2: 0.2 mM H2O2 two hours
Protocol: (§1) SH-SY5Y and fibroblast cells were routinely maintained in DMEM supplemented with 10% bovine fetal serum and 100 μg/ml of streptomycine and 100 U/ml of penicillin. For APP secretion assay, the cells were subcultured in the 12-well plate until confluence and then pre-incubated in the serum-free DMEM for 1 hour before the addition of the testing agents. After incubation for 2 hours at 37° C., conditioned medium was collected and cleared by centrifugation. Proteins were precipitated by trichloroacetic acid and processed for gel electrophoresis and Western blotting as described previously (Weidemann et al. 1989; Chen and Fernandez, 2004). A near-infrared dye-conjugated secondary antibody (LI-COR Biosci., NE, USA) was used and visualized with a LI-COR Odyssey Infrared Imaging System.

[3] = system: APP α-processing; experiment: APP secretion assay (sAPPα release, Western blotting) in SH-SY5Y cells; assay type: cell-based, human; details: for effect on APP α-processing / APP secretion (in words) / sAPPα release relative to basal line: 2 hours; for effect on APP α-processing / APP secretion (in words): compared with ATP, acetyl-coA, PCr; for sAPPα release relative to basal line: 1 mM each
Protocol: as §1

OO [H2O2, reference compound]
cell death caused by H2O2 alone ([1]; 0.6 mM H2O2): killed all cells by 10 hours
sAPPα release, of the young cell control, H2O2 alone ([2]; young fibroblasts, 0.2 mM H2O2, two hours): 46.1%

CN(CC(=O)O)C(=N)N [Cr, creatine, reference compound]
effect on APP α-processing / APP secretion (in words) [3]: did not show the same effects

Nc1nc2c(ncn2[C@@H]2O[C@H](COP(=O)(O)OP(=O)(O)OP(=O)(O)O)[C@@H](O)[C@H]2O)c(=O)[nH]1 [GTP, guanosine triphosphate]
cell survival, of the untreated control, rotenone-induced death ([1]; 0.2 μM rotenone, MTT): 17%
cell survival in H2O2-induced death (in words) [1]: moderately increased cell survival

Nc1ncnc2c1ncn2[C@@H]1O[C@H](COP(=O)(O)OP(=O)(O)OP(=O)(O)O)[C@@H](O)[C@H]1O [ATP, adenosine triphosphate]
cell survival, of the untreated control, rotenone-induced death ([1]; 0.2 μM rotenone, MTT): 15%
cell survival in H2O2-induced death (in words) [1]: moderately increased cell survival
sAPPα release relative to basal line [3]: 3.3 fold
EC50 ([3]; Homo sapiens, read-out: EC50 for promoting sAPPα release): 480 µM
stimulatory effect on sAPPα release in the presence of NaN3 ([3]; NaN3 25 mM pre-incubated 15 minutes): completely abolished
stimulatory effect on sAPPα release in the presence of rotenone ([3]; rotenone 20 μM pre-incubated 15 minutes): completely abolished
sAPPα release in aged cells, of the young cell level [2]: 82.3%
sAPPα level, of the control, co-treatment with rotenone ([2]; young fibroblasts): 79.2%
sAPPα level, of the control, co-treatment with H2O2 ([2]; young fibroblasts): 89.3%

C=C(C)[C@H]1Cc2c(ccc3c2O[C@@H]2COc4cc(OC)c(OC)cc4[C@@H]2C3=O)O1 [rotenone, reference compound]
cell death caused by rotenone alone ([1]; 0.2 μM rotenone, MTT): caused all cells to die by 2 days
sAPPα level, of the control, rotenone alone ([2]; young fibroblasts, 0.2 μM rotenone, two hours): 52.3%

Nc1ncnc2c1ncn2[C@@H]1O[C@H](COP(=O)(O)OP(=O)(O)O)[C@@H](O)[C@H]1O [ADP, adenosine diphosphate, reference compound]
effect on APP α-processing / APP secretion (in words) [3]: did not show the same effects

CC(=O)SCCNC(=O)CCNC(=O)[C@H](O)C(C)(C)COP(=O)(O)OP(=O)(O)OC[C@H]1O[C@@H](n2cnc3c(N)ncnc32)[C@H](O)[C@@H]1OP(=O)(O)O [acetyl-coA, acetyl coenzyme A]
cell survival, of the untreated control, rotenone-induced death ([1]; 0.2 μM rotenone, MTT): 35%
cell survival, of the control, H2O2-induced death [1]: 21%
sAPPα release relative to basal line [3]: 3.8 fold
sAPPα level, of the control, co-treatment with H2O2 ([2]; young fibroblasts): 74.5%

CN(CC(=O)O)C(=N)NP(=O)(O)O [PCr, phosphocreatine]
cell survival, of the untreated control, rotenone-induced death ([1]; 0.2 μM rotenone, MTT): 42%
cell survival, of the control, H2O2-induced death [1]: 49%
sAPPα release relative to basal line [3]: 4.2 fold
sAPPα release in aged cells, of the young cell level [2]: 79.6%

CC(C)(COP(=O)(O)OP(=O)(O)OC[C@H]1O[C@@H](n2cnc3c(N)ncnc32)[C@H](O)[C@@H]1OP(=O)(O)O)[C@@H](O)C(=O)NCCC(=O)NCCS [CoA, coenzyme A, reference compound]
effect on APP α-processing / APP secretion (in words) [3]: did not show the same effects

N[C@@H](CCC(=O)O)C(=O)O [glutamate, reference compound]
sAPPα release relative to basal line [3]: 2.3 fold

C=C(OP(=O)(O)O)C(=O)O [PEP, phosphoenol pyruvate]
cell survival, of the untreated control, rotenone-induced death ([1]; 0.2 μM rotenone, MTT): 53%
cell morphology under microscopy, rotenone-induced death ([1]; 0.2 μM rotenone, pre-incubation 1 mM for 30 min): substantially preserved the cell shape and the processes
cell survival, of the control, H2O2-induced death [1]: 38%
sAPPα level, of the control, co-treatment with rotenone ([2]; young fibroblasts): 90.3%
